Data taken from US10975068B2, “6-aminopyridin-3-yl thiazoles as modulators of RORγT” (Janssen Pharmaceutica NV, priority 2016, dated 2021).
Where two headings read alike, the source gives them in different places.

How the values were obtained:
full-length human RORγt = full-length human RORγt (Homo sapiens (Human), UniProt P51449); experiment: RORγt (full-length human) reporter assay, Conditions B or C; format: cell-based; conditions: for RORγt (FL) Reporter Assay B or C, % inhibition (value marked *): marked *: footnote not given; for IC50: read-out: RORγt (FL) Reporter Assay B or C, IC50; for inhibition at 6 µM: read-out: RORγt (FL) Reporter Assay B or C, % inhibition @ 6 μM, Conditions B or C
How it was run: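 HEK293T cells transiently co-transfected with GAL4-DBD–full-length human RORγt (nt 142-1635, NM_001001523.1) plus GAL4-firefly and CMV-Renilla luciferase reporters; compounds added 4-6 h post-transfection for 16-20 h in 1.3% FBS, 0.1% DMSO. Firefly signal normalized to DMSO and saturating reference compound, then to Renilla; IC50 from concentration plots.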

[1] = system: IL-17 production by CD4 T cells; experiment: Human Th17 assay; format: cell-based
Excerpt: The human Th17 assay tests the effect of RORγt modulatory compounds on IL-17 production by CD4 T cells under conditions which favor Th17 differentiation. Total CD4^+ T cells were isolated from the peripheral blood mononuclear cells (PBMC) of healthy donors using a CD4^+ T cell isolation kit II, following the manufacturer's instructions (Miltenyi Biotec). Cells were resuspended in a medium of RPMI-1640 supplemented with 10% fetal bovine serum, penicillin, streptomycin, glutamate, and β-mercaptoethanol and were added to 96-well plates at 1.5×10^5 per 100 μL per well. 50 μL of compound at titrated concentrations in DMSO were added into each well at final DMSO concentration at 0.2%. Cells were incubated for 1 hour, then 50 μL of Th17 cell differentiation medium was added to each well. The final concentrations of antibodies and cytokines (R&D Systems) in differentiation medium were: 3×10^6/mL anti-CD3/CD28 beads (prepared using human T cell activation/expansion kit, Miltenyi Biotec), 10 μg/mL anti-IL4, 10 μg/mL anti-IFNγ, 10 ng/mL IL1β, 10 ng/mL IL23, 50 ng/mL IL6, 3 ng/mL TGFβ and 20 U/mL IL2. Cells were cultured at 37° C. and 5% CO2 for 3 days. Supernatants were collected and the accumulated IL-17 in culture was measured by using MULTI-SPOT® Cytokine Plate following manufacture's instruction (Meso Scale Discovery). The plate was read using Sector Imager 6000, and IL-17 concentration was extrapolated from the standard curve. The IC50s were determined by GraphPad.

[2] = read-out: Human Th17 Assay, IC50 (μM)
[3] = read-out: Human Th17 Assay, IC50

full-length human RORγt, sequence (P51449 other isoform, or with tags, fused parts or gaps): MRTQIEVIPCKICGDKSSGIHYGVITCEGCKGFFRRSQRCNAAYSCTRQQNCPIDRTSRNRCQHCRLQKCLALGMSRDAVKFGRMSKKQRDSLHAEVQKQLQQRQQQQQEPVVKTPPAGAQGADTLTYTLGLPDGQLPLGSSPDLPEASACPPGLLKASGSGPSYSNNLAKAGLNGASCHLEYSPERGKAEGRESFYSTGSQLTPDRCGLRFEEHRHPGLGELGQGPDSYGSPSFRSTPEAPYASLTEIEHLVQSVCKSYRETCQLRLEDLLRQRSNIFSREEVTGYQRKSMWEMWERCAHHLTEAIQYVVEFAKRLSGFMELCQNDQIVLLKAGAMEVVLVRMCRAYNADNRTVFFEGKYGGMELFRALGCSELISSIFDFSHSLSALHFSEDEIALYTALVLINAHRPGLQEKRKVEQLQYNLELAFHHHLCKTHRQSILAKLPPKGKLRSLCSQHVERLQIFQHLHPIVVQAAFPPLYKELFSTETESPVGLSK

Compound	RORγt (FL) Reporter Assay B or C, % inhibition (value marked *) (full-length human RORγt; Conditions B or C)	IC50 (full-length human RORγt; Conditions B or C)	inhibition at 3 µM (full-length human RORγt; at 3 μM compound concentration, read-out: RORγt (FL) Reporter Assay B or C, % inhibition)	IC50 (full-length human RORγt)	IC50 [1, 3]	inhibition at 6 µM (full-length human RORγt)	IC50 [1, 2]
CC(C)(O)CNC(=O)c1nc(C(=O)N2C3CCC2CC3)c(-c2cnc(NCC(C)(C)C(F)(F)F)cc2C(F)(F)F)s1 [Example 122, 4-((1s,4s)-7-Azabicyclo[2.2.1]heptane-7-carbonyl)-N-(2-hydroxy-2-methylpropyl)-5-(6-((3,3,3-trifluoro-2,2-dimethylpropyl)amino)-4-(trifluoromethyl)pyridin-3-yl)thiazole-2-carboxamide]	102* %	33 nM					0.02 µM
C[C@H](Nc1cc(C(F)F)c(-c2sc(C(=O)NCC(C)(C)O)nc2C(=O)N2CC(F)(F)C[C@@H]2C)cn1)C(F)(F)F [Example 135]	100* %	39 nM			0.044 µM		
C[C@H]1CCCN1C(=O)c1nc(C(=O)NCC(C)(C)O)sc1-c1cnc(NC(C)(C)C)cc1C(F)(F)F [Example 52, (S)-5-(6-(tert-Butylamino)-4-(trifluoromethyl)pyridin-3-yl)-N-(2-hydroxy-2-methylpropyl)-4-(2-methylpyrrolidine-1-carbonyl)thiazole-2-carboxamide]	106* %	8.8 nM			0.01 µM		
C[C@H](NC(=O)c1nc(C(=O)N2CC(F)(F)C[C@@H]2C)c(-c2cnc(N[C@@H](C)C(F)(F)F)cc2C(F)F)s1)C(C)(C)O [Example 197]	91* %	66 nM			0.03 µM		
C[C@H](Nc1cc(C(F)(F)F)c(-c2sc(C(=O)NCC(C)(C)O)nc2C(=O)N2C3CCC2CC3)cn1)C1CC1 [Example 51, 4-((1s,4s)-7-Azabicyclo[2.2.1]heptane-7-carbonyl)-5-(6-(((S)-1-cyclopropylethyl)amino)-4-(trifluoromethyl)pyridin-3-yl)-N-(2-hydroxy-2-methylpropyl)thiazole-2-carboxamide]	101* %	4.8 nM					0.021 µM
C[C@H]1CCCCN1C(=O)c1nc(C(=O)NCC(C)(C)O)sc1-c1cnc(NC2CCCC2)cc1C(F)F [Example 41, (S)-5-(6-(Cyclopentylamino)-4-(difluoromethyl)pyridin-3-yl)-N-(2-hydroxy-2-methylpropyl)-4-(2-methylpiperidine-1-carbonyl)thiazole-2-carboxamide]		7.6 nM			0.043 µM	103%	
C[C@H](Nc1cc(C(F)(F)F)c(-c2sc(C(=O)NCC(C)(C)O)nc2C(=O)N2CCC[C@@H]2C)cn1)C1CC1 [Example 40, 5-(6-(((S)-1-Cyclopropylethyl)amino)-4-(trifluoromethyl)pyridin-3-yl)-N-(2-hydroxy-2-methylpropyl)-4-((S)-2-methylpyrrolidine-1-carbonyl)thiazole-2-carboxamide]		13 nM			0.056 µM	102%	

The next lines start with results.

RORγt (FL) Reporter Assay B or C, % inhibition (value marked *) (full-length human RORγt; Conditions B or C)	IC50 (full-length human RORγt; Conditions B or C)	inhibition at 3 µM (full-length human RORγt; at 3 μM compound concentration, read-out: RORγt (FL) Reporter Assay B or C, % inhibition)	IC50 (full-length human RORγt)	IC50 [1, 3]	inhibition at 6 µM (full-length human RORγt)	Compound	IC50 [1, 2]
		108%	5.6 nM	0.011 µM		C[C@H](NC(=O)c1nc(C(=O)N2CCC[C@@H]2C)c(-c2cnc(NC(C)(C)C)cc2C(F)(F)F)s1)C(C)(C)O [Example 336, 5-[6-(tert-Butylamino)-4-(trifluoromethyl)-3-pyridyl]-N-[(1S)-2-hydroxy-1,2-dimethyl-propyl]-4-[(2S)-2-methylpyrrolidine-1-carbonyl]thiazole-2-carboxamide]	
110* %	49 nM			0.014 µM		C[C@H](Nc1cc(C(F)(F)F)c(-c2sc(C(=O)NCC(C)(C)O)nc2C(=O)N2CCC[C@@H]2C)cn1)C(F)(F)F [Example 78, N-(2-Hydroxy-2-methylpropyl)-4-((S)-2-methylpyrrolidine-1-carbonyl)-5-(4-(trifluoromethyl)-6-(((S)-1,1,1-trifluoropropan-2-yl)amino)pyridin-3-yl)thiazole-2-carboxamide]	
106* %	76 nM			0.013 µM		C[C@H](Nc1cc(C(F)F)c(-c2sc(C(=O)NCC(C)(C)O)nc2C(=O)N2CCCC[C@@H]2C)cn1)C(F)(F)F [Example 144]	
106* %	29 nM			0.017 µM		CC[C@H](Nc1cc(C(F)(F)F)c(-c2sc(C(=O)NCC(C)(C)O)nc2C(=O)N2CCC[C@@H]2C)cn1)C(F)(F)F [Example 111, N-(2-Hydroxy-2-methylpropyl)-4-((S)-2-methylpyrrolidine-1-carbonyl)-5-(6-(((S)-1,1,1-trifluorobutan-2-yl)amino)-4-(trifluoromethyl)pyridin-3-yl)thiazole-2-carboxamide]	
108* %	21 nM			0.0067 µM		C[C@H]1CC(F)(F)CN1C(=O)c1nc(C(=O)NCC(C)(C)O)sc1-c1cnc(NC2(C(F)(F)F)CCC2)cc1C(F)F [Example 124, (S)-4-(4,4-Difluoro-2-methylpyrrolidine-1-carbonyl)-5-(4-(difluoromethyl)-6-((1-(trifluoromethyl)cyclobutyl)amino)pyridin-3-yl)-N-(2-hydroxy-2-methylpropyl)thiazole-2-carboxamide]	
100* %	23 nM			0.0055 µM		C[C@H]1CC(F)(F)CN1C(=O)c1nc(C(=O)NCC(C)(C)O)sc1-c1cnc(NC2(C)CCC2)cc1C(F)(F)F [Example 141, (S)-4-(4,4-Difluoro-2-methylpyrrolidine-1-carbonyl)-N-(2-hydroxy-2-methylpropyl)-5-(6-((1-methylcyclobutyl)amino)-4-(trifluoromethyl)pyridin-3-yl)thiazole-2-carboxamide]	
140* %	29 nM			0.025 µM		C[C@H]1CCCN1C(=O)c1nc(C(=O)NCC(C)(C)O)sc1-c1cnc(NCC(C)(C)C)cc1C(F)(F)F [Example 87, (S)—N-(2-Hydroxy-2-methylpropyl)-4-(2-methylpyrrolidine-1-carbonyl)-5-(6-(neopentylamino)-4-(trifluoromethyl)pyridin-3-yl)thiazole-2-carboxamide]	
109* %	27 nM			0.019 µM		C[C@H](Nc1cc(C(F)(F)F)c(-c2sc(C(=O)NCC(C)(C)O)nc2C(=O)N2CC(F)(F)C[C@@H]2C)cn1)C1CC1 [Example 142, 5-(6-(((S)-1-Cyclopropylethyl)amino)-4-(trifluormethyl)pyridin-3-yl)-4-((S)-4,4-difluoro-2-methylpyrrolidine-1-carbonyl)-N-(2-hydroxy-2-methylpropyl)thiazole-2-carboxamide]	
127* %	13 nM			0.0028 µM		C[C@H]1CCCCN1C(=O)c1nc(C(=O)NCC(C)(C)O)sc1-c1cnc(NCC(C)(C)C)cc1C(F)(F)F [Example 86, (S)—N-(2-Hydroxy-2-methylpropyl)-4-(2-methylpiperidine-1-carbonyl)-5-(6-(neopentylamino)-4-(trifluoromethyl)pyridin-3-yl)thiazole-2-carboxamide]	
